Legend:
[1] = biological target: T1, Metabotropic glutamate receptor 2 (Homo sapiens, UniProt Q14416); experiment: Binding affinity towards human metabotropic glutamate receptor 2 determined by [35S]GTP gamma S binding assay; assay type: functional
Target sequence in this assay (Q14416 whole entry): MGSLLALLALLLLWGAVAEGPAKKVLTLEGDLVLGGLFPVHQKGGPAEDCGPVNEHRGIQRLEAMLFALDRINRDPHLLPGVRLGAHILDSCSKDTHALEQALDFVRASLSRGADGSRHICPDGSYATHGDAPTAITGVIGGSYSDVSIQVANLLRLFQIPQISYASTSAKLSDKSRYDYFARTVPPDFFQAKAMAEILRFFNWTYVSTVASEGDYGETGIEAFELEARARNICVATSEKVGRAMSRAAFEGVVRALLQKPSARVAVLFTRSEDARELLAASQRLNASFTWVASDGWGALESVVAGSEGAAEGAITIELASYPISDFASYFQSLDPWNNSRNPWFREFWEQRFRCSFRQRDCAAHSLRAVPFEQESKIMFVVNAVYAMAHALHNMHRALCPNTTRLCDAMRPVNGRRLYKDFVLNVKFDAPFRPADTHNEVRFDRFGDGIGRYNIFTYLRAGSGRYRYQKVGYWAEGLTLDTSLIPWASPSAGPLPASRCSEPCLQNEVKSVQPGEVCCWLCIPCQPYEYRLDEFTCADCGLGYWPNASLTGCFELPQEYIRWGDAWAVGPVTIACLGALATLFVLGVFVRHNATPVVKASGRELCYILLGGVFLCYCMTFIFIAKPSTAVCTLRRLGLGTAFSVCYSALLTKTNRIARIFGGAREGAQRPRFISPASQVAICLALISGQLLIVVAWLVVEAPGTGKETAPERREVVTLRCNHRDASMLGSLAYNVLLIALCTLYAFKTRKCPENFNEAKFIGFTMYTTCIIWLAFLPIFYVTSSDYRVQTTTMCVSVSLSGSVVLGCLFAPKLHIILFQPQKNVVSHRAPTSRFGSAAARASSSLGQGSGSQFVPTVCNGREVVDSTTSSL

[2] = biological target: T1, Metabotropic glutamate receptor 2; experiment: Potentiation as percent of maximum glutamate response at 1 mM
Target sequence in this assay (Q14416 19-872 limits assumed): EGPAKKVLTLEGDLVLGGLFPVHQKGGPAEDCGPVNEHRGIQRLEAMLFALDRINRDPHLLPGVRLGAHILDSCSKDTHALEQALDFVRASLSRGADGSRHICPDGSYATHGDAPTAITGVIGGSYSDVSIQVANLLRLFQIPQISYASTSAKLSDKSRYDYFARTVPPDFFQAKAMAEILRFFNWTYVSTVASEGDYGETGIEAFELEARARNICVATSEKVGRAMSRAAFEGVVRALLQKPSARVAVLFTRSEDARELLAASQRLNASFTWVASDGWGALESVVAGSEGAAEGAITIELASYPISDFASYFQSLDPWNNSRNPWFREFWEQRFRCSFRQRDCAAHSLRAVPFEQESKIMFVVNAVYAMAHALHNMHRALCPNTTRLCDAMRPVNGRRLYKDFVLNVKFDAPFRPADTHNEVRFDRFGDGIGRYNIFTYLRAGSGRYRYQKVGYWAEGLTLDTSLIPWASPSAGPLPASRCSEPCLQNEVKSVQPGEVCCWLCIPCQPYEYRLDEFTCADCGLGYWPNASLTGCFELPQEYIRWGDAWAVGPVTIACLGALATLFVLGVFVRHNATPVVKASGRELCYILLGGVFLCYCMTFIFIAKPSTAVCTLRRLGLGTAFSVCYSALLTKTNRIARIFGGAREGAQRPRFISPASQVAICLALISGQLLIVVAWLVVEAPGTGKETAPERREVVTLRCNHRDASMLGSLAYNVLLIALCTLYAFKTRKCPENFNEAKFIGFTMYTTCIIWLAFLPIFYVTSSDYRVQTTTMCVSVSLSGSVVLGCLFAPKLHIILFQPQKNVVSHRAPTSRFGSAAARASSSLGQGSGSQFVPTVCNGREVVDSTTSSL

[3] = Ratio of brain to plasma levels was determined upon administration at 20 mpk intraperitoneally after 2 h; assay type: ADME; settings: rat, brain and plasma, ip, 20 mg/kg
[4] = Compound level in rat brain was determined upon administration at 2 mpk iv or 10 mpk po; assay type: ADME, organism-based; settings: in vivo, read-out: Concentration in Brain
[5] = Bioavailability in rat (dose 2 mg/kg i.v. and 10 mg/kg p.o.); assay type: ADME, organism-based; settings: in vivo, po
[6] = Total clearance in rat plasma upon administration at 2 mpk iv or 10 mpk po; assay type: ADME, organism-based; settings: 2 mg/kg
[7] = biological target: T1, Metabotropic glutamate receptor 2; experiment: Binding affinity for human metabotropic glutamate receptor 2 in [35S]GTP gamma S binding assay; not active at < 10 uM; assay type: functional
Target sequence in this assay (Q14416 whole entry): as the sequence (Q14416 whole entry) above

Row | SMILES | EC50 [1] [nM] | Potentiation [2] [%] | Kp at 2 h [3] | concentration [4] [nM] | bioavailability [5] [%] | clearance [6] [mL/min/kg] | EC50 [7]
1 | CC(C)CC(=O)c1ccc(OCCCCSc2ccncc2)c(Br)c1O | 676 | 82 | – | – | – | – | –
2 | Cc1c(OCc2ccc(Sc3ccncc3)cc2)ccc(C(=O)CC(C)(C)C)c1O | 578 | 79 | 0.21 | 340 | – | – | –
3 | CC(C)CC(=O)c1ccc(OCCCCOc2cccc(F)c2F)c(Br)c1O | 558 | 88 | – | – | 0 | 75 | –
4 | Cc1c(OCCCCOc2ccc(-c3nn[nH]n3)cc2)ccc(C(=O)CC(C)C)c1O | – | – | 0.03 | – | 59 | 15 | –
5 | Cc1c(OCCCCSc2ccncc2)ccc(C(=O)CC(C)C)c1O | 340 | 33 | 1.1 | 400 | 3 | 33 | –
6 | Cc1c(OCc2cccc(CSc3ccncc3)c2)ccc(C(=O)CC(C)C)c1O | 819 | 68 | 1.2 | 330 | – | – | –
7 | Cc1c(OCCCCOc2ccccc2)ccc(C(=O)CC(C)C)c1O | 4550 | 24 | – | – | – | – | –
8 | Cc1c(OCc2ccc(Sc3ccncc3)cc2)ccc(C(=O)CC(C)C)c1O | 1060 | 38 | – | – | – | – | –
9 | CC(C)CC(=O)c1ccc(OCCCCOc2ccccc2)c(Br)c1O | 1500 | 53 | – | – | – | – | –
10 | Cc1c(OCc2ccccc2Sc2ccncc2)ccc(C(=O)CC(C)C)c1O | 677 | 38 | – | – | – | – | –
11 | Cc1c(OCCCSc2ccncc2)ccc(C(=O)CC(C)C)c1O | – | – | – | – | – | – | Not Active
12 | Cc1c(OCCCCOc2ccccn2)ccc(C(=O)CC(C)C)c1O | 3270 | 33 | – | – | – | – | –
13 | CCCc1c(OCCCCOc2ccc(-c3nnn[nH]3)cc2)ccc(C(C)=O)c1O | – | – | 0.01 | – | 63 | 33 | –
14 | Cc1c(OCc2ccc(CSc3ccncc3)cc2)ccc(C(=O)CC(C)C)c1O | 770 | 78 | – | – | – | – | –
15 | Cc1c(OCCCCOc2ccc(-n3cncn3)cc2)ccc(C(=O)CC(C)C)c1O | 4240 | 18 | – | – | – | – | –
16 | Cc1c(OCc2cccc(Sc3ccncc3)c2)ccc(C(=O)CC(C)C)c1O | 890 | 58 | – | – | – | – | –
17 | COc1ccccc1Oc1ccc(N(Cc2cccnc2)S(=O)(=O)CC(F)(F)F)cc1 | – | – | 0.15 | 10 | < 1 | 70 | –
18 | Cc1c(OCCCCSc2ccccn2)ccc(C(=O)CC(C)C)c1O | 1530 | 21 | – | – | – | – | –
19 | Cc1c(OCCCCOc2cccc(F)c2F)ccc(C(=O)CC(C)C)c1O | 384 | 18 | – | – | – | – | –
20 | Cc1c(OCCCCSc2cccnc2)ccc(C(=O)CC(C)C)c1O | 1090 | 26 | – | – | – | – | –
21 | Cc1c(OCCCCOc2ccncc2)ccc(C(=O)CC(C)C)c1O | 3850 | 40 | – | – | – | – | –
22 | Cc1c(OCCCCOc2ccccc2F)ccc(C(=O)CC(C)C)c1O | 1990 | 30 | – | – | – | – | –
23 | CC(C)CC(=O)c1ccc(OCCCCOc2cccnc2)c(Br)c1O | 575 | 67 | – | – | – | – | –
24 | Cc1c(OCCCCOc2cccnc2)ccc(C(=O)CC(C)C)c1O | 1720 | 46 | – | – | – | – | –
25 | Cc1c(OCCCCCSc2ccncc2)ccc(C(=O)CC(C)C)c1O | – | – | – | – | – | – | Not Active

Reference: ChEMBL document CHEMBL1138703, “Allosteric potentiators of the metabotropic glutamate receptor 2 (mGlu2). Part 2: 4-thiopyridyl acetophenones as non-tetrazole containing mGlu2 receptor potentiators” (Bioorg Med Chem Lett, 2004)
